Results: patent US11951148B1 (Fleurir ABX LLC, priority 2014, dated 2024)

Assays:
Format in all cases: cell-based
K. pneumoniae 1161486 [1] = test: MIC, CLSI broth microdilution assay; details: agent alone
Protocol: (§1) For the described examples, reference and clinical isolates were generally obtained from known sources, including American Type Culture Collection (Manasas, VA.) or International Health Management Associates, Inc. (Schaumberg, IL). Bacteria were cultured in suitable broth, concentrated by centrifugation, and cryopreserved in the same medium, generally containing 20% glycerol by holding at −80° C. Every two weeks a small amount of frozen culture was removed aseptically and streaked on fresh agar plates to act as a working inoculum. Following overnight growth at about 37° C., the plates were wrapped in parafilm and held at about 4° C. Bacteria (4-5 colonies) were then aseptically transferred into broth growth medium for assays as needed.
(§2) Minimal inhibitory concentration (MIC) assays were performed in a manner as described for the CLSI broth microdilution assay guideline (see, Clinical Laboratory Standards Institute, 2009, Methods for Dilution Antimicrobial Susceptibility Tests for Bacteria That Grow Aerobically; Approved Standard, Eighth Edition, M07-A8, Vol. 29, No. 2). Antibiotics were dissolved, and then serially diluted in suitable broth across the assay plate in the classical 2-fold geometric format. Antibiotic concentrations in each well at this point were double what the final assay concentration would be. Bacterial inocula were prepared by swabbing several colonies from a fresh agar plate, and resuspending the bacteria to a density that was the 0.5 McFarland turbidity standard (generally close or equivalent to 1×10^8 CFU/mL). The bacterial inocula were diluted in the broth to about 1×10^6 CFU/mL, and a suitable amount, e.g., 100 μL was overlayered onto the wells containing the diluted antibiotics. Following incubation as per the guideline, results were recorded as growth or no growth, and the lowest concentration of antibiotic where no growth was observed was declared the MIC.

E. coli ATCC 25922 = test: MIC, CLSI broth microdilution assay; details: agent alone
Protocol: as §1, §2

E. coli 7623 [2] = test: MIC, CLSI broth microdilution assay; details: agent alone
Protocol: as §1, §2

A. baumannii 160S = test: MIC, CLSI broth microdilution assay; details: agent alone
Protocol: as §1, §2

K. pneumoniae 170S [3] = test: MIC, CLSI broth microdilution assay; details: agent alone
Protocol: as §1, §2

K. pneumoniae 1161486 [4] = test: Synergy checkerboard assay of antibacterial combinations; details: in combination with A-24
Protocol: as §1
as §2, with “Bacterial inocula were prepared by swabbing several colonies from a fresh agar plate, and resuspending the bacteria to a density that was the 0.5 McFarland turbidity standard (generally close or equivalent to 1×10^8 CFU/mL). The bacterial inocula were diluted in the broth to about 1×10^6 CFU/mL, and a suitable amount, e.g., 100 μL was overlayered onto the wells containing the diluted antibiotics.” left out
(§3) To assay for synergy of antibacterial combinations, a recognized synergy checkerboard assay, adapted from the CLSI guideline microdilution assay, was utilized (see Eliopoulos, G. M., and Moellering, R. C, Jr., 1996. Antimicrobial Combinations, pg. 330-396. In: Lorian, V. (Ed.), Antibiotics in Laboratory Medicine, 4th Ed., Williams & Wilkins; Baltimore, MD). […] The fractional inhibitory concentration, which provides the mathematical definition (as shown below) is calculated to determine whether antibacterial synergy was observed. […]

E. coli 7623 [5] = test: as above; details: in combination with A-24
Protocol: as §1
as §2, with “Bacterial inocula were prepared by swabbing several colonies from a fresh agar plate, and resuspending the bacteria to a density that was the 0.5 McFarland turbidity standard (generally close or equivalent to 1×10^8 CFU/mL). The bacterial inocula were diluted in the broth to about 1×10^6 CFU/mL, and a suitable amount, e.g., 100 μL was overlayered onto the wells containing the diluted antibiotics.” left out
as §3

K. pneumoniae 170S [6] = test: as above; details: in combination with A-24
Protocol: as §1
as §2, with “Bacterial inocula were prepared by swabbing several colonies from a fresh agar plate, and resuspending the bacteria to a density that was the 0.5 McFarland turbidity standard (generally close or equivalent to 1×10^8 CFU/mL). The bacterial inocula were diluted in the broth to about 1×10^6 CFU/mL, and a suitable amount, e.g., 100 μL was overlayered onto the wells containing the diluted antibiotics.” left out
as §3

pristinamycin
MIC (K. pneumoniae 1161486 [1]): >128 µg/mL | MIC (E. coli ATCC 25922): 64 µg/mL | MIC (E. coli 7623 [2]): 64 µg/mL | MIC (A. baumannii 160S): 128 µg/mL | MIC (K. pneumoniae 170S [3]): >128 µg/mL | MIC of Pristinamycin in Combo (K. pneumoniae 1161486 [4]): ≤2 µg/mL | MIC of Pristinamycin in Combo (E. coli 7623 [5]): 32 µg/mL | MIC of Pristinamycin in Combo (K. pneumoniae 170S [6]): 2 µg/mL
